≈ marks a conversion by molar mass, not a printed value. Where two headings read alike, the source gives them in different places.
Legend:
P-388 ascites cells [1] = assay: Effect on P-388 leukemia (ii): subcutaneous inoculation, mean tumor weight; type: in vivo, BDF1-strain mice; details: oral, once a day for 7 days, 11th day
Protocol: (ii) P-388 ascites cells (1×10^6 cells/head) were inoculated subcutaneously at the right armpit into BDF1 -strain mice (male, 7 weeks old, each group consisting of 8 mice), and after 24 hours, the oral administration of a test drug was started, and effected once a day for 7 days. The effect thereof was judged from the mean weight of the tumor at the 11th day. The test drug was used in the form of a suspension or solution in a 0.3% carboxymethyl cellulose-containing saline solution or a dimethylsulfoxide-propylene glycolphosphate buffer (1:2:1) mixture. T/C was calculated in the same manner as in above b(ii).

Acute toxicity = details: mouse, in vivo, ip
Source text: The test drugs were used in the form of a solution or suspension in a saline solution or a 0.3% carboxymethyl cellulose-containing saline solution.

[2] = tested on: Sarcoma 180 ascites cells; assay: Effect on Sarcoma 180 carcinoma: intraperitoneal inoculation, mean survival days; type: in vivo, ICR-strain mice; details: once a day for 7 days
Protocol: Sarcoma 180 ascites cells (1×10^6 cells/head) were inocualted intraperitoneally into ICR-strain mice (female, 6 weeks old, each group consisting of 4 or 5 mice), and after 24 hours, the intraperitoneal administration of a test drug was started, and effected once a day for 7 days. The effect thereof was judged from the mean survival days. The test drug was used in the form of a solution or suspension in a saline solution or a 0.3% carboxymethyl cellulose-containing saline solution. [formula]

L-1210 ascites cells [3] = assay: Effect on L-1210 leukemia (i): intraperitoneal inoculation, mean survival days; type: in vivo, BDF1-strain mice
Protocol: (§1) (i) L-1210 ascites cells (1×10^5 cells/head) were inoculated intraperitoneally into BDF1 -strain mice (female, 6 weeks old, each group consisting of 4 mice), and after 24 hours, the intraperitoneal administration of a test drug was started and effected once a day. The effect thereof was judged from the mean survival days. The test drug was used in the form of a solution or suspension in a saline solution or a 0.3% carboxymethyl cellulose-containing saline solution.
T/C was calculated in the same manner as in above b (i).

[4] = tested on: Ehrlich ascites carcinoma cells; assay: Effect on Ehrlich carcinoma (iii): subcutaneous inoculation at right armpit, mean tumor weight; type: in vivo, ICR-strain mice; details: once a day for 7 days, 14th day
Protocol: (iii) Ehrlich ascites carcinoma cells (4×10^6 cells/head) were inoculated subcutaneously at the right armpit region into ICR-strain mice (female, 7 weeks old, each group consisting of 6 or 7 mice), and after 24 hours, the oral administration or subcutaneous administration at the dorsal region of a test drug was started, and effected once a day for 7 days. The effect thereof was judged from the mean weight of the tumor on the 14th day. The test drug was used in the form of a solution or suspension in a saline solution or a 0.3% carboxymethyl cellulose-containing saline solution.
T/C was calculated in the same manner as in above (ii).

[5] = tested on: Lewis lung carcinoma cells; assay: Effect on Lewis lung carcinoma: subcutaneous inoculation, average tumor weight; type: in vivo, BDF1-strain mice; details: oral, once a day for 7 days, 21st day
Protocol: Lewis lung carcinoma cells (1×10^6 cells/head) were inoculated subcutaneously at the right armpit region into BDF1 -strain mice (male, 6 weeks old, each group consisting of 5 mice) and after 24 hours, the oral administration of a test drug was started and effected once a day for 7 days. The effect thereof was judged from the average weight of tumor on the 21st day. The test drug was used in the form of a suspension in a 0.3% carboxymethyl cellulose-containing saline solution. T/C was calculated in the same manner as in above b(ii).

[6] = tested on: Ehrlich ascites carcinoma cells; assay: Effect on Ehrlich carcinoma (i): intraperitoneal inoculation, mean survival days; type: in vivo, ICR-strain mice; details: Mus musculus, ip, read-out: T/C (mean survival days)
Protocol: (i) Ehrlich ascites carcinoma cells (1×10^6 cells/head) were inoculated intraperitoneally into ICR-strain mice (female, 6 to 7 weeks old, each group consisting of 5 or 4 mice), and after 24 hours, the […] The effect thereof was judged from the mean survival days.
The test drugs were used in the form of a solution or suspension in a saline solution or a 0.3% carboxymethyl cellulose-containing saline solution. [formula]

B-16 melanoma cells = assay: Effect on B-16 melanoma: subcutaneous inoculation, mean tumor weight; type: in vivo, BDF1-strain mice
Protocol: B-16 melanoma cells (1×10^6 cells/head) were inoculated subcutaneously at the right armpit region into BDF1 -strain mice (male, 7 weeks old, each group consisting of 8 mice), and after 24 hours, the oral administration or subcutaneous administration at the […] […] The test drug was used in the form of a suspension or solution in a 0.3% carboxymethyl cellulose-containing saline solution or dimethylsulfoxide-propylene glycol (1:1) mixture. T/C was calculated in the same manner as in above b(ii).

HeLa S3 cells = assay: MIC value against HeLa S3 cells (microplate method); type: cell-based; details: Homo sapiens, 96 h, 2×10^4 cells/ml, 4 days, Giemsa staining
Source text: (§2) a. MIC value against HeLa S3 cells and Ehrlich cells (microplate method) Number of cells: 2×10^4 cells/ml Culture medium: Eagle's MEM+20% calf embryonic serum Culture time: 4 days Judgement: Giemsa staining

Ehrlich cells = assay: MIC value against Ehrlich cells (microplate method); type: cell-based; details: 96 h, 2×10^4 cells/ml, 4 days, Giemsa staining
Source text: as §2

P-388 ascites cells [7] = assay: Effect on P-388 leukemia (i): intraperitoneal inoculation, mean survival days; type: in vivo, BDF1-strain mice; details: 100 mg/kg, once a day for 7 days
Protocol: as §1, with “P-388” for “L-1210”, “(1×10^6” for “(1×10^5”, “day for 7 days.” for “day.”, “solution. T/C was calculated in the same manner as in above b(i).” for “solution.”

[8] = tested on: Ehrlich ascites carcinoma cells; assay: Effect on Ehrlich carcinoma (ii): subcutaneous inoculation at inguinal region, mean tumor weight; type: in vivo, ICR-strain mice; details: 250 mg/kg, orally, once a day for 5 days, judgement day 15
Protocol: (ii) Ehrlich ascites carcinoma cells (4×10^6 cells/head) were inoculated subcutaneously at the inguinal region into ICR-strain mice (female, 6 to 7 weeks old, each group consisting of 5 or 4 mice), and after 24 hours, the intraperitaneal or oral administration of a test drug was started and effected once a day for 5 days. The effect thereof was judged from the mean weight of tumor on the 13th or 15th day, respectively.
The test drug was used in the form of a solution or suspension in a saline solution or a 0.3% carboxymethyl cellulose-containing saline solution. [formula]

L-1210 ascites cells [9] = assay: Effect on L-1210 leukemia (ii): subcutaneous inoculation, mean survival days and tumor weight; type: in vivo, BDF1-strain mice; details: oral; for T/C Tumor Weight: 9th day
Protocol: (ii) L-1210 ascites cells (1×10^6 cells/head) were inoculated subcutaneously into BDF1 -strain mice (male, 6 weeks old, each group consisting of 4 mice), and after 24 hours, the oral administration of a test drug was started, and effected once a day for […]. The effect thereof was judged from the mean survival days and the weight of the tumor on the 9th day.
The test drug was used in the form of a suspension in a 0.3% carboxymethyl cellulose-containing saline solution. T/C was calculated in the same manner as in above b(i) and b(ii).

[10] = 100 mg/kg, orally, 7 administrations, 18th day
[11] = 100* mg/kg, orally, 7 administrations, 19th day, in dimethylsulfoxide-propylene glycol (1:1)

Compound: Nc1ccc(Nc2ccc(CN3CCN(Cc4ccccc4)C(=O)C3=O)cc2)nc1Cl [Compound 41]
- T/C (mean tumor weight) (P-388 ascites cells [1]; 200 mg/kg): 67%
- LD50 at 168 h (Acute toxicity): > 200 mg/kg
- T/C (mean survival days) ([2]; 10 mg/kg): > 193%
- Survival Ratio in Days Shown in Parenthesis ([2]; 10 mg/kg, 32 days): 1/5
- T/C (mean survival days) ([2]; 20 mg/kg): > 218%
- Survival Ratio in Days Shown in Parenthesis ([2]; 20 mg/kg, 32 days): 4/5
- T/C (mean survival days) (L-1210 ascites cells [3]; 20 mg/kg, 7 administrations): 236%
- T/C (mean tumor weight) ([4]; 50 mg/kg, orally): 78%
- T/C (mean tumor weight) ([4]; 50 mg/kg, subcutaneously): 54%
- T/C (average tumor weight) ([5]; 100 mg/kg): 65.9%
- T/C (average tumor weight) ([5]; 200 mg/kg): 43.4%
- response vs control in vivo at 50 mg/kg ([6]; 96 h, 50* mg/kg, once a day for 4 days): 195%
- T/C (mean tumor weight) (B-16 melanoma cells; 50 mg/kg, subcutaneously, 3 administrations, 19th day): 37%
- T/C (mean tumor weight) (B-16 melanoma cells; [10]): 88%
- T/C (mean tumor weight) (B-16 melanoma cells; [11]): 43%
- MIC (HeLa S3 cells): < 0.05 µg/mL
- MIC (Ehrlich cells): < 0.05 µg/mL

Compound: CCCCCCN1CCN(Cc2ccc(Nc3ncccn3)cc2)C(=O)C1=O [Compound 7]
- LD50 at 168 h (Acute toxicity): > 1000 mg/kg
- T/C (mean survival days) ([2]; 100 mg/kg): > 183.1%
- Survival Ratio in Days Shown in Parenthesis ([2]; 100 mg/kg, 35 days): 3/4
- T/C (mean survival days) (L-1210 ascites cells [3]; 50 mg/kg, 9 administrations): 181%
- T/C (mean survival days) (L-1210 ascites cells [3]; 100 mg/kg, 7 administrations): 168.7%
- T/C (mean survival days) (L-1210 ascites cells [3]; 200 mg/kg, 3 administrations): 159.5%
- response vs control in vivo at 50 mg/kg ([6]; 168 h, 50 mg/kg, once a day for 7 days): > 187%
- response vs control in vivo at 100 mg/kg ([6]; 168 h, once a day for 7 days): > 207%
- T/C (mean survival days) (P-388 ascites cells [7]): 166.3%
- MIC (HeLa S3 cells): 0.39 to 0.78 µg/mL (≈ 1.02 to 2.04 µM)
- MIC (Ehrlich cells): 0.39 to 0.78 µg/mL (≈ 1.02 to 2.04 µM)

Compound: O=C1C(=O)N(Cc2ccc(Nc3ncccn3)cc2)CCN1Cc1ccccc1 [Compound 13]
- T/C (mean tumor weight) (P-388 ascites cells [1]; 200 mg/kg): 49%
- T/C (mean tumor weight) (P-388 ascites cells [1]; 60* mg/kg, solution in dimethylsulfoxide-propylene glycol-phosphate buffer (1:2:1)): 25%
- LD50 at 168 h (Acute toxicity): > 1000 mg/kg
- T/C (mean survival days) ([2]; 50 mg/kg): > 204%
- Survival Ratio in Days Shown in Parenthesis ([2]; 50 mg/kg, 32 days): 4/5
- T/C (mean survival days) (L-1210 ascites cells [3]; 50 mg/kg, 9 administrations): 240.5%
- T/C (mean survival days) (L-1210 ascites cells [3]; 100 mg/kg, 6 administrations): 150%
- T/C (mean survival days) (L-1210 ascites cells [3]; 200 mg/kg, 3 administrations): 229%
- T/C (mean tumor weight) [8]: 32.4%
- T/C (mean tumor weight) ([4]; 50 mg/kg, subcutaneously): 54%
- T/C (mean tumor weight) ([4]; 100 mg/kg, orally): 48%
- T/C (mean tumor weight) ([4]; 200 mg/kg, orally): 26%
- T/C (average tumor weight) ([5]; 100 mg/kg): 73.2%
- T/C (average tumor weight) ([5]; 200 mg/kg): 67.1%
- T/C Survival Days (L-1210 ascites cells [9]; 50 mg/kg): 120.0%
- T/C Tumor Weight (L-1210 ascites cells [9]; 50 mg/kg): 156.6%
- T/C Survival Days (L-1210 ascites cells [9]; 100 mg/kg): 194.4%
- T/C Tumor Weight (L-1210 ascites cells [9]; 100 mg/kg): 2.6%
- T/C Survival Days (L-1210 ascites cells [9]; 250 mg/kg): 127.8%
- T/C Tumor Weight (L-1210 ascites cells [9]; 250 mg/kg): 0%
- response vs control in vivo at 100 mg/kg ([6]; 168 h, once a day for 7 days): > 177%
- T/C (mean tumor weight) (B-16 melanoma cells; [10]): 62%
- T/C (mean tumor weight) (B-16 melanoma cells; 200 mg/kg, orally, 9 administrations, 21st day): 23%
- T/C (mean tumor weight) (B-16 melanoma cells; 50* mg/kg, subcutaneously, 7 administrations, 19th day, in dimethylsulfoxide-propylene glycol (1:1)): 88%
- T/C (mean tumor weight) (B-16 melanoma cells; [11]): 40%
- MIC (HeLa S3 cells): 0.1 µg/mL (≈ 0.258 µM)
- MIC (Ehrlich cells): 0.1 µg/mL (≈ 0.258 µM)

Compound: Nc1ccc(Nc2ccc(CN3CCN(Cc4ccccc4)C(=O)C3=O)cc2)nc1 [Compound 4]
- T/C (mean tumor weight) (P-388 ascites cells [1]; 50 mg/kg): 79%
- LD50 at 168 h (Acute toxicity): > 300 mg/kg
- T/C (mean survival days) ([2]; 10 mg/kg): > 221%
- Survival Ratio in Days Shown in Parenthesis ([2]; 10 mg/kg, 32 days): 4/5
- T/C (mean survival days) ([2]; 20 mg/kg): > 221%
- Survival Ratio in Days Shown in Parenthesis ([2]; 20 mg/kg, 32 days): 4/5
- T/C (mean survival days) (L-1210 ascites cells [3]; 50 mg/kg, 9 administrations): 164.3%
- T/C (mean survival days) (L-1210 ascites cells [3]; 100 mg/kg, 3 administrations): 161.9%
- T/C (mean tumor weight) [8]: 56.9%
- T/C (mean tumor weight) ([4]; 50 mg/kg, orally): 82%
- T/C (mean tumor weight) ([4]; 50 mg/kg, subcutaneously): 15%
- T/C (mean tumor weight) ([4]; 100 mg/kg, orally): 65%
- T/C (mean tumor weight) (B-16 melanoma cells; 25 mg/kg, subcutaneously, 7 administrations, 19th day): 38%
- T/C (mean tumor weight) (B-16 melanoma cells; 50 mg/kg, orally, 9 administrations, 21st day): 60%
- T/C (mean tumor weight) (B-16 melanoma cells; [10]): 58%
- T/C (mean tumor weight) (B-16 melanoma cells; 50* mg/kg, orally, 7 administrations, 19th day, in dimethylsulfoxide-propylene glycol (1:1)): 71%
- MIC (HeLa S3 cells): < 0.05 µg/mL
- MIC (Ehrlich cells): < 0.05 µg/mL
